Columns and labels:
BBB spheroids = BBB spheroids staining and dextran permeability assay; type: cell-based, human; settings: BIA 72 hours
Protocol: BBB spheroids and dextran permeability assay: BBB spheroids were grown and cultured with a FITC-conjugated (70 kDa) fluorescent dextran (Millipore Sigma) as previously reported.^51,86,87 BBB spheroids were grown for 48 hours and then treated with BIA at increasing doses for 72 hours. Then, spheroids were collected and stained as indicated above for CDH5 and F-actin (Phalloidin). In the case of fluorescent dextran incubation, BBB spheroids were collected in 1.5 mL microtubes (Eppendorf) and incubated for 3 hours at 37 degrees Celsius. Pictures were taken by confocal microscopy. For dextran permeability measurement, 21 images using Z-stack layers of 5 μm intervals for achieving a total depth of 100 μm within the sphere. Fluorescent-dextran intensity from maximal intensity projection was quantified using Image J (National Institute of Health).

HCMEC/D3 cells [1] = test: Trans-endothelial electrical resistance (TEER) of HCMEC/D3 monolayers; type: cell-based, human
Protocol: Trans-endothelial electrical resistance: HCMEC/D3 or HBMEC cells were plated in 8W10E+ PET 8-well arrays (Applied Biophysics) at a density of 100,000 cells/well in 500 μl. These arrays were placed in a pre-stabilized ECIS Z-Theta instrument (Applied Biophysics). Using the ECIS Z-Theta software (Applied Biophysics), measurements were set to 4000 and 64000 Hz every 30 minutes. […] Cells would then be treated with BIA and left to grow up to 5 days, with frequent drug-containing media re-addition for maintenance of the culture. Resistance (W) and capacitance (nF) were recorded and plotted.

[2] = test system: G9-PCDH and G34-PCDH cells; test: Platinum levels in GBM cells treated with BIA and cisplatin; type: cell-based, human; settings: 2 μM BIA and cisplatin simultaneously
HCMEC/D3 cells [3] = test: Immunofluorescence staining of HCMEC/D3 endothelial cells; type: cell-based, human; settings: BIA 1 μM
Protocol: Immunofluorescent (IF) staining: For IF staining of HCMEC/D3 endothelial cells, we coated 8-well Nunc™ Lab-Tek™ chamber slides (Thermo Fisher Scientific) with 1× Type 1 rat-tail collagen (Corning) following provider's instructions. Then, we plated at a density of 50,000 cells/well and left in culture for 72 hours to allow for barrier formation. Next, we treated with BIA or control for 24-48 hours. Cells were then fixed with 10% formalin (Thermo Fisher Scientific) for 10 minutes, permeabilized for 30 minutes using 0.01% Triton X-100 and blocked with 0.1% normal donkey serum (Calbiochem) for 1 hour in 0.025% Tween-20 (Thermo Fisher Scientific) in Phosphate-Buffered Saline (PBS) (Gibco). Then, primary antibodies were added: mouse anti-CDH5 (VE-cadherin, BioLegend) 1:100, rabbit antiClaudin-5 (Thermo Fisher Scientific) 1:100, and mouse anti-ZO-1 (Invitrogen) 1:100, and incubated overnight in the cold. Next day, secondary antibodies were used for 2 hours at room temperature: Alexa Fluor 594 anti-mouse (1:500), Alexa Fluor 594 anti-rabbit (1:500), and Alexa Fluor 647 anti-mouse (1:500), all of these Thermo Fisher Scientific. For cytoskeleton staining Phalloidin-iFluor 488 (Abcam) 1:1000 for 30 minutes and nuclei staining using Hoechst 33342 (Thermo Fisher Scientific) 1:1000 for 5 minutes, at room temperature.

HCMEC/D3 cells [4] = test: Bulk RNA-sequencing of HCMEC/D3 cells treated with BIA; type: cell-based, human
Protocol: RNA-sequencing of HCMEC/D3 cells treated with BIA: For RNA-sequencing, HCMEC/D3 cells were plated at a density of 500,000 cells/well in a 6-well plate. Left to grow for 24 hours, and then treated with 1 μM of BIA or DMSO (control). After 24 hours, cells were collected and processed for RNA extraction using the column-based RNeasy kit (QIAGEN), following provider's instructions. RNA quality and quantity were quantified using a Nanodrop™ One (Invitrogen). At least 500 ng of RNA was submitted for bulk RNA-sequencing at GeneWiz (Azenta Life Sciences). QC was accessed, and library was prepared with Poly(A) selection. Sequencing was performed using Illumina HiSeq.
Differential gene expression on the RNA-seq raw data (FASTQ files) was analyzed by Azenta Life Sciences using DESeq2 aligning to human transcriptome. Data QC was verified. Log2 fold change (Log 2FC) was calculated by Log2 (BIA group mean normalized counts/Control group mean normalized counts). The Wald test p-value and Benjamini-Hochberg adjusted p-value were calculated. A heatmap and volcano plot of top adjusted p-value differentially expressed genes (DEGs) in ensemble ID annotation bi-clustering to treatment conditions were generated. Control and BIA groups consisted of three-independent samples.

G9 tumors = test: Platinum uptake by ICP-MS in G9 tumor-bearing mice (Example 2); type: in vivo; settings: BiA 20 mg/kg tail vein, cisplatin 5 mg/kg 24 hours later
Protocol: Inductively Coupled Plasma-Mass Spectrometry (ICP-MS): For platinum quantitation, ICP-MS was performed in an Agilent 7900 ICP mass spectrometer and controlled using the ICP-MS MassHunter software. Machine calibration was performed using a tuning solution (Agilent), containing 1 ng/mL (1 ppb) of Li, Co, Y, Ce and Ti trace-metals. In each experiment, the desired internal standard was added to each sample and standard solution. Standard curves were prepared with potassium tetrachloroplatinate (II) (Thermo Fisher) by generating dilutions of 0.1, 1, 10, 50, 100 and 1000 parts per billion (ppb). Isotopes selected for platinum detection were Pt^195. Performance reports were registered daily for calibration and accuracy records.
For the assessment of the effects of indirubin on intratumoral accumulation of platinum, G9 tumors were implanted intracranially according to the protocols described above. Cisplatin (5 mg/kg) was injected via the tail vein 24 hours post-BIA injection (20 mg/kg vial tail vein), and accumulation measured after a further 5 hours.

[5] = Hydrophobicity / dissolution in physiological solutions; type: physicochemical; settings: difficult to dissolve in physiological solutions
HCMEC/D3 cells [6] = test: Human phospho-kinase array of HCMEC/D3 cells; type: cell-based
Protocol: Phospho-kinase array: HCMEC/D3 cells were plated at a density of 1 million cells and treated with either 1 μM BIA or vehicle DMSO for 24 hr. Cell lysates were collected with manufacturer provided Lysis Buffer 6 supplemented with 10 μg/mL Aprotinin (Tocris), 10 μg/mL Leupeptin hemisulfate (Tocris) and 10 μg/mL Pepstatin A (Tocris) for protein preservation. 50 μg of lysate from each sample were loaded into each membrane. All experiment procedures were performed using the Proteome Profiler Human Phospho-Kinase Array Kit (R&D Systems) following manufacturer's protocol.

In the case of CC(=O)ON=C1C(=C2C(=O)Nc3cc(Br)ccc32)Nc2ccccc21 [BIA, 6-bromoindirubin acetoxime], the “CDH5 expression in BBB spheroids (IF)” value (BBB spheroids) is reported as “decreased the expression of CDH5 in a dose-dependent manner”, the “F-actin in BBB spheroids (Phalloidin)” value (BBB spheroids) is reported as “reduced considerably” and the “FITC-dextran (70 kDa) permeability of BBB spheroids” value (BBB spheroids; dextran 3 hours) is reported as “dose-dependent increase in permeability”. The “barrier establishment (TEER), BIA added 24 hours after plating” value (HCMEC/D3 cells [1]) was “prevented barrier establishment”, the “barrier formation (TEER), BIA added to confluent monolayers” value (HCMEC/D3 cells [1]; BIA added at monolayer confluence (~110 hrs)) was “marked decreased of barrier formation” and the “cellular drug (platinum) accumulation due to BIA addition” value [2] was “did not observe any advantage in drug accumulation”. The “CDH5 immunofluorescence at the membrane periphery” value (HCMEC/D3 cells [3]; 24-48 hrs) was “marked decrease”, the Claudin-5 immunofluorescence (HCMEC/D3 cells [3]; 48 hours) was “no difference” and the ZO-1 immunofluorescence (HCMEC/D3 cells [3]; 48 hours) was “marked reduction”. The ERG expression (HCMEC/D3 cells [4]) was “downregulation of ERG”, the “expression of WNT4, WNT10A and WNT11 ligands” value (HCMEC/D3 cells [4]) was “increase of expression” and the “expression of WNT7B and WNT ligand receptors FZD4 and FZD7” value (HCMEC/D3 cells [4]) was “decrease”. For the same molecule, the “CDH5 gene expression change upon BIA treatment” value (HCMEC/D3 cells [4]; BIA 1 μM, 24 hrs) was −3.06 fold, log 2, the PCDH12 expression (HCMEC/D3 cells [4]; BIA 1 μM, 24 hrs) was “increased its expression” and the “expression of PHGDH, AXIN2, TCF7, VLDLR and VEGFA” value (HCMEC/D3 cells [4]; BIA 1 μM, 24 hrs) was “promoted expression”. For the same molecule, the “expression of angiogenesis-related genes MMRN2, CD93, ACVRL1, KDR, SMAD6 and S1PR3” value (HCMEC/D3 cells [4]; BIA 1 μM, 24 hrs) was “downregulated”, the “significantly downregulated differentially expressed genes” value (HCMEC/D3 cells [4]; BIA 1 μM, 24 hrs) was 652 genes and the “significantly upregulated differentially expressed genes” value (HCMEC/D3 cells [4]; BIA 1 μM, 24 hrs) was 862 genes. For the same molecule, the “BTB-genes modulated by BIA” value (HCMEC/D3 cells [4]; of the 12 BTB-genes of the in-silico screening) was 8 of the 12, the “in vivo uptake of platinum in healthy mouse brain” value (G9 tumors) was “not in healthy mouse brain” and the “in vivo uptake of platinum in tumor tissue” value (G9 tumors; measured after 5 hours) was “significantly increases the in vivo uptake of platinum”. For the same molecule, the hydrophobicity [5] was “highly hydrophobic”, the “activity of endothelial nitric oxide synthase (eNOS) and the p38a/CREB axis” value (HCMEC/D3 cells [6]) was “decreased activity” and the “phosphorylation of MAPK family (p38a, JNK1, MSK1/2, ERK1/2), SRC family (SRC, YES, FGR) and transcription factors (CREB, STAT1, STAT2, STAT5a/b, c-JUN)” value (HCMEC/D3 cells [6]; 1 μM BIA, 24 hours) was “decrease of activating phosphorylation”. For the same molecule, the “phosphorylation of STAT3 and p70 S6 kinase” value (HCMEC/D3 cells [6]; 1 μM BIA, 24 hours) was “phosphorylation of STAT3 at S727 and Y705”.
